Reference: US10596150B2, “Antifungal agents” (F2G LIMITED, priority 2014, dated 2020)

Columns and labels:
S. aurantiacum = experiment: Analogous MIC experiments; type: cell-based
Description: (§1) Between 1 and 5 mgs of the compound were accurately weighed out into a sterile Eppendorf tube. The compound was dissolved in DMSO to give a solution containing 5 mg/mL. Tubes were stored at −20° C. until required.
(§2) On the day of testing thawed solutions were vortex mixed to ensure homogeneity. 30 μL of solution was removed and added to 570 μL of sterile water in a separate sterile Eppendorf. The thoroughly mixed solution was used to prepare a series of doubling dilutions in water, in a deep well plate. Thirteen replicate plates were prepared using a Minitrak by aspirating 20 μL from each well into eleven clear polystyrene 96 well plates.
(§3) Spores of Aspergillus and Scedosporium were harvested from cultures grown on Sabarauds agar for 5 days, and resuspended in PBS/Tween 80 to approx 1×10^7 cfu/mL. Each organism suspension was diluted in RPMI medium, containing 2% glucose and 0.135 M MOPS buffer (pH 7.0) to 0.5-2×10^4 cfu/mL. 80 μL of an organism suspension was added to each well of the plate containing drug dilutions.
(§4) This produced MIC plates with a drug range 50-0.05 mg/L and organism inocula of 1-2×10^4 cfu/mL. All plates were incubated for 24-48 h at 35° C. Growth was assessed by monitoring the optical density at 485 nm for each well. The MIC of a compound is the lowest drug concentration that inhibits growth of an organism by >80% compared with a drug free control.

S. boydii = experiment: Analogous MIC experiments; type: cell-based
Description: as §1, §2, §3, §4

S. dehoogii = experiment: Analogous MIC experiments; type: cell-based
Description: as §1, §2, §3, §4

[1] = tested on: A. fumigatus strain A1163; experiment: Murine survival model of Aspergillus fumigatus infection (survival, kidney burden, serum galactomannan); type: in vivo, male CD-1 mice; conditions: for serum galactomannan indices: FIG. 6; for End of study tissue burden (kidney): surviving animals; for survival at end of study: therapy from 24 h post infection for 8 days
Description: Murine survival models are frequently used to assess the efficacy of antifungal drugs against Aspergillus. The models used in the development of Example 1 were carried out at Euprotec Ltd (Manchester) a contract research organisation (CRO) with extensive experience in the evaluation of antifungal drugs. The typical model involves the use of groups of 6-10 male CD-1 mice per treatment group. Mice are immunosuppressed with 200 mg/kg cyclophosphamide injected intraperitoneal 3 days prior to infection. A. fumigatus strain A1163 is cultured on Sabourauds agar for 4-6 days at 35° C. Spores are harvested in phosphate buffered saline (PBS)/Tween, the suspension diluted and the number of spores enumerated. Mice are then infected with an intravenous injection of A. fumigatus spores given through the lateral tail vein. The typical inoculum is 6-8×10^4 cfu/mouse and is sufficient to kill all untreated animals by Day 4-6. The animals die of IA and Aspergillus organisms can be detected in many body tissues. Treatment is typically commenced soon after infection but delays of up to 24 h following infection produce a more challenging model. Treatment is continued for 7-9 days. Treatment may be up to 3 times daily using an oral dosing. Following cessation of treatment, animals are observed for 1-2 days, and then sacrificed. Relevant controls treated with oral drug-free vehicle are always included; ideally there should be no survivors in this group. A positive control consisting of an antifungal drug such as Reference Example 10 was used. This compound consistently produces 100% survival at doses of 10 mg/kg b.i.d. dosed by the oral route. Most models are run as temporary neutropenic models where only a single dose of cyclophosphamide is administered.
The fungal burden in the kidney can be determined on animals surviving to the end of the study and this can help provide efficacy discrimination between groups where all animals survive. Tissue burdens are carried out by removing the kidneys from animals when they are culled at the end of the study. These are homogenised in saline and plated onto Sabourauds agar and incubated at 35° C. for 72 h. Aspergillus colonies are counted and the amount of aspergillus per gram of kidney calculated. The results are expressed as colony forming units per gramme (cfu/g). […] However, data from studies where tissue burden has been carried out on untreated animals at day 4 or 5 has shown that tissue burdens are typically in excess of 20,000 cfu/g and may exceed 100,000 cfu/g in some studies.
In some of the survival studies described below serum samples were collected from surviving mice at the end of the study or on mice that succumbed to infection during the study to examine the effect of Example 1 on galactomannan levels and to see if there was a relationship between galactomannan levels and survival.
The galactomannan assays were carried out on serum samples that had been stored frozen at −80° C. Samples were thawed and assayed using a Platelia Aspergillus Ag enzyme-linked immunosorbent assay (ELISA) kit (Biorad). The assay was modified slightly to take into account the small sample volumes available from mice. If assay results were high a repeat test was carried out on a sample diluted in normal mouse serum. The amount of galactomannan in a sample is presented as a galactomannan index. The mean galactomannan index for each group was calculated and is presented graphically against each treatment regimen.
The survival study carried assessed the dose response of Example 1. Example 1 was dosed orally to A. fumigatus infected mice at 2 dose levels 10 mg/kg b.i.d. and 3 mg/kg b.i.d. Therapy was initiated at 24 h post infection and therapy continued for 8 days. At the end of the study kidney burdens were measured on surviving animals. In addition serum samples were taken at the end of the study from all surviving animals and from each animal that died during the course of the study. […]

Cc1cc(-c2ccccc2)c(C(=O)C(=O)Nc2ccc(N3CCN(c4ncc(F)cn4)CC3)cc2)n1C [Example 1, 2-(1,5-dimethyl-3-phenyl-1H-pyrrol-2-yl)-N-(4-(4-(5-fluoropyrimidin-2-yl)piperazin-1-yl)phenyl)-2-oxoacetamide]
antifungal activity against S. aurantiacum (S. aurantiacum): good antifungal activity
antifungal activity against S. boydii (S. boydii): good antifungal activity
antifungal activity against S. dehoogii (S. dehoogii): good antifungal activity
serum galactomannan indices ([1]; 3 mg/kg b.i.d. oral, similar magnitude to untreated animals): correspondingly high
End of study tissue burden (kidney) ([1]; 3 mg/kg b.i.d. oral): 3021 cfu/gm
survival at end of study ([1]; 3 mg/kg b.i.d. oral): 10%
serum galactomannan indices ([1]; 10 mg/kg b.i.d. oral): very low
End of study tissue burden (kidney) ([1]; 10 mg/kg b.i.d. oral): 1114 cfu/gm
survival at end of study ([1]; 10 mg/kg b.i.d. oral): 100%
